One assay has as its system S. pyogenes. The assay is described as follows: microbe, parasite or virus in culture. Details: species or system Streptococcus pyogenes ATCC 19615. As to conditions: Streptococcus pyogenes, read-out: MIC (ug/mL).
For a further assay, the target named is T1, HuDHFR (Homo sapiens, UniProt P00374).
T1 sequence (P00374 1-187): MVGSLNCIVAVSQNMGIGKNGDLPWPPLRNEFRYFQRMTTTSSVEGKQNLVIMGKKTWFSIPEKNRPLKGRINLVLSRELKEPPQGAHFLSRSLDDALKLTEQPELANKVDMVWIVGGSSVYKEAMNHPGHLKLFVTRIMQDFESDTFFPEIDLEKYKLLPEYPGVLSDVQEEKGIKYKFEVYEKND
The assay can be described thus: DHFR inhibition assay. In kind it is biochemical.

In brackets after ≈: the same amount, converted by molar mass. A value given as a limit tells only on which side of the number the result lay.

On to `CCc1nc(N)nc(N)c1C#CC(C)c1cc(-c2cc(C)nc(C)c2)ccc1Cl` (racemic) [compound 10], for which the MIC with S. pyogenes worked out at 0.312 µg/mL (≈ 0.769 µM).
As for `CCc1nc(N)nc(N)c1C#CCc1cc(OC)cc(-c2ccc(C(=O)O)cc2)c1` [compound 1], in the assay with S. pyogenes, the MIC is ≤ 0.039 µg/mL.
With `CCc1nc(N)nc(N)c1C#C[C@@H](C)c1cc(OC)cc(-c2ccc(C(=O)O)cc2)c1` [compound 2], the MIC with S. pyogenes was ≤ 0.039 µg/mL.
`CCc1nc(N)nc(N)c1C#C[C@H](C)c1cc(OC)cc(-c2ccc(C(=O)O)cc2)c1` [compound 3]: the MIC with S. pyogenes was ≤ 0.039 µg/mL.
Same read-out and setting: the result for `CCc1nc(N)nc(N)c1C#C[C@H](C)c1cc(-c2ccc(C(=O)O)cc2)ccc1OC` [compound 4] reads 0.078 µg/mL (≈ 0.187 µM); that for `CCc1nc(N)nc(N)c1C#C[C@@H](C)c1cc(-c2ccc(C(=O)O)cc2)ccc1OC` [compound 5], 0.078 µg/mL (≈ 0.187 µM); that for `CCc1nc(N)nc(N)c1C#CCc1cc(-c2ccccc2C(=O)O)ccc1OC` [compound 6], 0.625 µg/mL (≈ 1.55 µM).
As for `CCc1nc(N)nc(N)c1C#CCc1cc(-c2ccc(C(=O)O)cc2)ccc1OC` [compound 7], the MIC in the assay on S. pyogenes is 0.078 µg/mL (≈ 0.194 µM).
For `CCc1nc(N)nc(N)c1C#C[C@H](C)c1cc(-c2cc(C)nc(C)c2)ccc1Cl` [compound 9], on HuDHFR, the IC50 (commonly the point on the concentration scale where inhibition reaches its midpoint) was 210 ± 18 nM. Besides, in the assay on S. pyogenes, the MIC was ≤ 0.039 µg/mL.
`CCc1nc(N)nc(N)c1C#C[C@@H](C)c1cc(-c2cc(C)nc(C)c2)ccc1Cl` [compound 11] had an IC50 against HuDHFR of 207 ± 13 nM. Moreover, in the assay with S. pyogenes, the MIC worked out at 0.625 µg/mL (≈ 1.54 µM).
On to `CCc1nc(N)nc(N)c1C#C[C@H](C)c1cc(-c2cc(C)nc(C)c2)ccc1OC(F)(F)F` [compound 12], for which the MIC in the assay on S. pyogenes came out at 0.312 µg/mL (≈ 0.685 µM).
The compound `CCc1nc(N)nc(N)c1C#C[C@@H](C)c1cc(-c2cc(C)nc(C)c2)ccc1OC(F)(F)F` [compound 13] showed an IC50 against HuDHFR of 167 ± 9 nM. The MIC with S. pyogenes was 0.156 µg/mL (≈ 0.342 µM).
Regarding `CCc1nc(N)nc(N)c1C#CCc1cc(-c2cc(C)nc(C)c2)ccc1OC(F)(F)F` [compound 14], in the assay on S. pyogenes, the MIC is 0.625 µg/mL (≈ 1.42 µM).
On to `CCc1nc(N)nc(N)c1C#CC(C)c1cc(-c2cc(C)nc(C)c2)ccc1OC(F)(F)F` (stereo not drawn) [compound 15], for which the MIC in the assay with S. pyogenes is 0.312 µg/mL (≈ 0.685 µM).
Same read-out and setting: the result for `CCc1nc(N)nc(N)c1C#CC(C)c1cc(F)cc(-c2cc(C)nc(C)c2)c1` (stereo not drawn) [compound 16] reads ≤ 0.039 µg/mL.
In the case of `CCc1nc(N)nc(N)c1C#CC(C)c1cc(-c2ccncc2)cc(F)c1OC` (stereo not drawn) [compound 17], on HuDHFR, the IC50 amounted to 234 ± 16 nM. For the same compound, the MIC in the assay with S. pyogenes was ≤ 0.039 µg/mL.
As for `CCc1nc(N)nc(N)c1C#CC(C)c1cccc(-c2cc(C)nc(C)c2)c1` (stereo not drawn) [compound 18], the MIC with S. pyogenes is ≤ 0.039 µg/mL.
Still for that read-out and setting: the result for `CCc1nc(N)nc(N)c1C#CC(C)c1cc2c(c(-c3cc(C)nc(C)c3)c1)OCCO2` (stereo not drawn) [compound 19] reads ≤ 0.039 µg/mL.
Consider `CCc1nc(N)nc(N)c1C#CC(C)c1cc2c(c(-c3ccncc3)c1)OCCO2` (stereo not drawn) [compound 20], for which the MIC in the assay on S. pyogenes was ≤ 0.039 µg/mL.
In the case of `CCc1nc(N)nc(N)c1C#C[C@@H](C)c1cc2c(c(-c3ccncc3)c1)OCO2` [compound 21], on HuDHFR, the IC50 was 191 ± 12 nM. Besides, the MIC in the assay with S. pyogenes is ≤ 0.039 µg/mL.
For `CCc1nc(N)nc(N)c1C#C[C@H](C)c1cc2c(c(-c3ccncc3)c1)OCO2` [compound 22] the same measures were 85 ± 10 nM and ≤ 0.039 µg/mL.
For the compound `CCc1nc(N)nc(N)c1C#C[C@@H](C)c1ccc(OC)c(-c2ccncc2)c1` [compound 23], half-maximal inhibition against HuDHFR (IC50) required 68 ± 7 nM. In addition, in the assay on S. pyogenes, the MIC was ≤ 0.039 µg/mL.
For `CCc1nc(N)nc(N)c1C#C[C@H](C)c1ccc(OC)c(-c2ccncc2)c1` [compound 24], in that order: 74 ± 7 nM and ≤ 0.039 µg/mL.
Regarding `CCc1nc(N)nc(N)c1C#C[C@H](C)c1cc(-c2ccncc2)ccc1OC` [compound 25], the MIC in the assay on S. pyogenes is ≤ 0.039 µg/mL.
Same read-out and setting: the result for `CCc1nc(N)nc(N)c1C#C[C@@H](C)c1cc(-c2ccncc2)ccc1OC` [compound 26] reads ≤ 0.039 µg/mL; that for `CCc1nc(N)nc(N)c1C#C[C@@H](C)c1cc(OC)cc(-c2ccncc2)c1` [compound 27], ≤ 0.039 µg/mL; that for `CCc1nc(N)nc(N)c1C#C[C@H](C)c1cc(OC)cc(-c2ccncc2)c1` [compound 28], ≤ 0.039 µg/mL.
On the same count and under the same terms, the result for `CCc1nc(N)nc(N)c1C#CC(C)c1cc(OC)c(OC)c(-c2ccncc2)c1` (stereo not drawn) [compound 29] reads ≤ 0.039 µg/mL; that for `CCc1nc(N)nc(N)c1C#C[C@H](C)c1cc(OC)c(OC)c(-c2ccncc2)c1` [compound 30], ≤ 0.039 µg/mL.
Still for that read-out and setting: the result for `CCc1nc(N)nc(N)c1C#CC(C)c1cc(-c2ccncc2)cc2c1OCO2` (stereo not drawn) [compound 31] reads ≤ 0.039 µg/mL; that for `CCc1nc(N)nc(N)c1C#CC(C)c1cc(O)c(O)c(-c2ccncc2)c1` (stereo not drawn) [compound 32], 0.312 µg/mL (≈ 0.831 µM).

These data come from paper doi:10.1101/504357v1 (biorxiv, 2018).
